The source of these data is patent US20260021119A1, “TETRACYCLINE DERIVATIVES” (ICM (INSTITUT DU CERVEAU ET DE LA MOELLE ÉPINIÈRE), priority 2022, published 2026).

One assay deals with dopamine neurons. The experiment in a line: Neuroprotection in midbrain mouse cultures, survival of TH+ dopamine neurons. It is filed as cell-based. Particulars: 0.5 μM, 1 μM and 5 μM, div14. On the procedure: (§1) Midbrain mouse cultures were subjected to a maturation step until day in vitro (div) 7, and then gradually exposed to phenol red formulated DMEM/Nutrient mixture F12 Ham supplemented with 20 μg/mL of insulin and 2 μM of the NMDA receptor blocker MK-801. Under these conditions, which favor low-level, sustained oxidative insults, and lead ultimately to dopamine cell death, treatments with the compound of formula (Ib) according to the invention (at a concentration ranging from 0.1 to 5 μM) were performed or not, as well as treatments with the reference tetracycline antibiotic doxycycline (DOX; 10 μM) and the glycoprotein apotransferrin (APO; 100 μg/mL), the latter being used as reference neuroprotectant. At div14, cultures were fixed, and then processed for tyrosine hydroxylase (TH) immunocytochemistry to estimate the survival of dopamine neurons.
as §1, with “(Ic)” for “(Ib)”, “with” for “with the reference tetracycline antibiotic doxycycline (DOX; 10 μM) and”

In assay [1] the test system is p-tau (phosphorylated tau protein at Ser202, Thr205 residues). The experiment in a line: p-tau (AT8) expression in cultured cortical neurons under oxidative stress. It is filed as cell-based, mouse. Also on record: key to Reduction of the % of p-tau+ somas: a favorable response, synonymous with a decrease in the number of p-tau+ cell bodies; ++: a favorable response, synonymous with a decrease in the number of p-tau+ cell bodies; +++=reference level; an unfavorable response is represented by a sign “−”, synonymous with an elevation of the number of p-tau+ cell bodies; overexpression of p-tau in cortical cell bodies: dose or concentration left out as unconfirmed. The method, then: A culture model of cortical neurons from mouse embryonic brain was used, in which neuronal cells were subjected to a maturation step until day in vitro (div) 7, before being gradually exposed to phenol red formulated DMEM/Nutrient mixture F12 Ham supplemented with 20 μg/mL of insulin, and 2 μM of the NMDA receptor blocker MK-801 (DF12i).
Precisely, after 4 days of exposure to DF12i, between 10-15% of surviving neurons show a very strong AT8 immunosignal in their somas while only 1 to 1.5% of neuronal cell bodies are found immunopositive under conditions where oxidative stress is repressed by treatment with bovine apotransferrin (APO; 100 µg/mL, Sigma Aldrich), a glycoprotein with iron chelating properties. Likewise, overexpression of p-tau in cortical cell bodies is reduced by the two non-antibiotic tetracyclines compound of formula (C) ([…]) and compound of formula (Ib) ([…]): see the following Table: […]

Another assay has as its system S. aureus ATCC 25923. The assay is described as follows: MIC, standardized protocols (Example 9). The note with it: Staphylococcus aureus, ATCC25923. It is filed as cell-based. An excerpt:
(§2) Bacterial strains used in this study were: S. aureus (ATCC25923), E. coli (ATCC28922), E. faecalis (ATCC29212) and P. aeruginosa (PA01). The minimum inhibitory concentrations (MICs) were estimated using standardized protocols (Mawabo et al, J. Infect. Public Health 2015).

In another assay the test system is E. coli ATCC 28922. The assay is described as follows: MIC, standardized protocols (Example 9). It is filed as cell-based. Particulars: Escherichia coli, ATCC28922.
Source text: as §2

The subject of a further assay is P. aeruginosa PA01. The assay is described as follows: MIC, standardized protocols (Example 9). It is filed as cell-based. The note with it: Pseudomonas aeruginosa.
Source text: as §2

In another assay the test system is E. faecalis ATCC 29212. The assay is described as follows: MIC, standardized protocols (Example 9). It is filed as cell-based. The note with it: Enterococcus faecalis, ATCC29212.
Source text: as §2

The test system of assay [2] is primary mouse microglial cells (TNF-a release, LPS 10 ng/ml). The assay is described as follows: Anti-inflammatory effect in LPS-activated primary mouse microglial cells, TNF-a ELISA. It is filed as cell-based. On the procedure: Primary mouse microglial cells cultivated in Dulbecco's Modified Eagle Medium (DMEM) with no serum and 15 mM Hepes were challenged with lipopolysaccharide (LPS, 10 ng/ml) for 24 hours in the presence or not of the compound of formula (Ib) according to the present invention at concentrations of 1 μM, 5 μM, 25 μM and 50 μM. After that, the release of the proinflammatory cytokine TNF-a was estimated with an ELISA kit (ThermoFisher Scientific).
A general note: ELISA stands for enzyme-linked immunosorbent assay.

The next assay deals with 4 test bacterial strains. The assay is described as follows: Antimicrobial effects, summary over the 4 test bacterial strains (Example 9). It is filed as cell-based.
Source text: as §2

The test system of a further assay is bacteria. The assay is described as follows: Antimicrobial effect against bacteria (Example 13, no method given). It is filed as cell-based.

≈ marks a conversion by molar mass, not a printed value.

Broadly, the MIC is the lowest concentration found to suppress growth.

On to `C[C@@]1(O)c2cccc(O)c2C(=O)C2=C(O)C3C(=O)C(C(N)=O)=C(O)C[C@@H]3[C@@H](O)[C@@H]21` (stereo partly drawn) [Compound of formula (Ib), (4aS,5R,5aR,6S)-3,5,6,10,12-pentahydroxy-6-methyl-1,11-dioxo-1,4,4a,5,5a,6,11,12a-octahydrotetracene-2-carboxamide], for which the “neuroprotective effect (survival of dopamine neurons)” value with dopamine neurons is “highly protective”. Further, in [1], the “overexpression of p-tau in cortical cell bodies” value is on record as “reduced”. Further, the “Reduction of the % of p-tau+ somas” value in [1] (compounds 3 μM, APO 100 μg/mL, mouse cortical cultures exposed div 7-11 to DF12i) is on record as “+++”. Besides, the minimal inhibitory concentration (MIC) against S. aureus ATCC 25923 is 100 µM; with E. coli ATCC 28922, more than 200 µM; in the assay on P. aeruginosa PA01, more than 200 µM; with E. faecalis ATCC 29212, 100 µM. In addition, in assay [2] (between 5 μM to 50 μM, LPS 10 ng/ml, 24 hours), the “reduction of proinflammatory effects of LPS (TNF-a release)” value was “reduces significantly”. In addition, the “antimicrobial effects against the 4 test bacterial strains” value in the assay on 4 test bacterial strains is “effective against none of them”.
In the case of `C[C@@]1(O)c2cccc(O)c2C(=O)C2=C(O)C3C(=O)C(C(N)=O)=C(O)CC3CC21` (some centres unmarked) [Compound of formula (Ic)], the “neuroprotective effect (survival of dopamine neurons)” value in the assay with dopamine neurons is recorded as “highly protective”. Besides, in the assay on bacteria, the “antimicrobial effect against bacteria” value is reported as “does not show any antimicrobial effect”. Also, the “anti-inflammatory effects vis-à-vis 10 ng/mL LPS” value in [2] (5 μM, 25 μM and 50 μM) is “has anti-inflammatory effects”.
Consider `CN(C)[C@@H]1C(O)=C(C(N)=O)C(=O)[C@@]2(O)C(O)=C3C(=O)c4c(O)cccc4[C@@](C)(O)[C@H]3[C@H](O)[C@@H]12` [Oxytetracycline], for which the minimum inhibitory concentration (MIC) was 3.12 µM (≈ 1.44 µg/mL) against S. aureus ATCC 25923, 3.12 µM (≈ 1.44 µg/mL) against E. coli ATCC 28922, 50 µM (≈ 23 µg/mL) against P. aeruginosa PA01 and 3.12 µM (≈ 1.44 µg/mL) against E. faecalis ATCC 29212. In the assay on 4 test bacterial strains, the “antimicrobial effects against the 4 test bacterial strains” value is reported as “exerts antimicrobial effects against 3 of the 4 test bacterial strains”.
